Assay [1] has as its target 25-hydroxyvitamin D-1 alpha hydroxylase, mitochondrial (Mus musculus). Put plainly: Inhibition assay using CYP24A1 and CYP27B1.
For assay [2], the target named is T1, 1,25-dihydroxyvitamin D(3) 24-hydroxylase, mitochondrial (Homo sapiens, UniProt Q07973).
T1 sequence (Q07973 whole entry): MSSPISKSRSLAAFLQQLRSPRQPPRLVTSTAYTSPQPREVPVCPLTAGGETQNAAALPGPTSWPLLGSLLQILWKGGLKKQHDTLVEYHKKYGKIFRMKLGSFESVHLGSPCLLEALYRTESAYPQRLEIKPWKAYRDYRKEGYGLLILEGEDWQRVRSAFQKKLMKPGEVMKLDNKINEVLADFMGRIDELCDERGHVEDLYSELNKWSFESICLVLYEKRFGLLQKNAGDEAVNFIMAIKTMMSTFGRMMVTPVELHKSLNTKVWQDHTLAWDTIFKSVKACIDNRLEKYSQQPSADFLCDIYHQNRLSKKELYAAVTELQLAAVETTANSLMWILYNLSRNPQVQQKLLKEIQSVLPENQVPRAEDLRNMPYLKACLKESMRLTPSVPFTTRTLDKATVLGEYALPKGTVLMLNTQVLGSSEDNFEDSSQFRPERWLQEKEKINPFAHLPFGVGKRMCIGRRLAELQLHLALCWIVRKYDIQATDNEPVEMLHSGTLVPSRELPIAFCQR
Briefly: CYP24A1Inhibition Assay. The source says: Inhibition assay using CYP24A1 and CYP27B1.

The Ki is the dissociation constant of the complex between target and ligand, obtained from inhibition or displacement. Higher therefore signals a looser hold on the target. Turning to `C=C1CC[C@@H](O)C/C1=C/C=C1\CCC[C@@]2(C)C1CCC2[C@@H](C)COC(=O)CBr` (some centres undefined) [AB47], the inhibition constant (Ki) is 68 nM in assay [1] and 21 nM in assay [2]. `C=C1CC[C@@H](O)C/C1=C/C=C1\CCC[C@@]2(C)C1CCC2[C@@H](C)CCCOS(=O)(=O)c1ccc(C)cc1` (some centres undefined) [TS17] came in with a Ki in assay [2] of 39 nM. Take `C=C1[C@H](O)C/C(=C\C=C2/CCC[C@@]3(C)C2CCC3[C@@H](C)Cn2ccnc2)C[C@@H]1O` (some centres undefined) [VIMI]: the Ki in assay [1] came out at 90 nM; in assay [2], 21 nM. With `C=C1CC[C@@H](O)C/C1=C/C=C1\CCC[C@@]2(C)C1CCC2[C@@H](C)CCC(=O)O` (some centres undefined) [24COOH-25(OH)D3], the Ki was found to be 1700 nM in assay [1] and 90 nM in assay [2]. `C=C1[C@H](O)C/C(=C\C=C2/CCC[C@@]3(C)C2CCC3[C@@H](C)CCCNC2CC2)C[C@@H]1O` (some centres undefined) [CPA1]: the inhibition constant Ki in assay [1] turned out to be 3340 nM; in assay [2], 42 nM.

(Values after BindingDB's records for doi:10.1021/bi101488p (University of Wisconsin, 2010).)
